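Method: 48-hour compound exposure of cells in 96-well plates, five concentrations, linear interpolation of endpoints. TGI is the concentration that stops growth completely.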 Activity calls are given as the source filed them. No stated cut-off is given here; in the data, active means GI50 below about 0.43 µM; inactive means the rest.
Assays:
Assay in all cases: growth of human tumour cells (NCI), 48 h
[1] = tested on: XF 498 CNS
[2] = tested on: SNB-78 CNS
[3] = tested on: SK-MEL-28 melanoma
[4] = tested on: HCT-15 colon
[5] = tested on: OVCAR-5 ovarian
[6] = tested on: UO-31 renal
[7] = tested on: OVCAR-3 ovarian
[8] = tested on: HCC-2998 colon
[9] = tested on: DMS 273 small cell lung
[10] = tested on: NCI-H460 lung
[11] = tested on: M14 melanoma
[12] = tested on: NCI-H226 lung
[13] = tested on: A549 NSCLC
[14] = tested on: HOP-62 NSCLC
[15] = tested on: UACC-257 melanoma
[16] = tested on: DMS 114 small cell lung
[17] = tested on: OVCAR-8 ovarian
[18] = tested on: SN12C renal
[19] = tested on: DLD-1 colon
[20] = tested on: SNB-19 CNS
[21] = tested on: SF-539 CNS
[22] = tested on: HL-60(TB) leukemia
[23] = tested on: K-562 leukemia
[24] = tested on: SF-268 CNS
[25] = tested on: NCI-H23 lung
[26] = tested on: HT29 colon
[27] = tested on: SK-MEL-2 melanoma
[28] = tested on: RPMI-8226 leukemia
[29] = tested on: UACC-62 melanoma
[30] = tested on: IGROV1 ovarian
[31] = tested on: MALME-3M melanoma
[32] = tested on: TK-10 renal
[33] = tested on: LXFL 529 NSCLC
[34] = tested on: HOP-92 NSCLC
[35] = tested on: SK-MEL-5 melanoma
[36] = tested on: EKVX NSCLC
[37] = tested on: SF-295 CNS
[38] = tested on: NCI-H522 lung
[39] = tested on: CCRF-CEM leukemia
[40] = tested on: ACHN renal
[41] = tested on: KM20L2 colon
[42] = tested on: A498 renal
[43] = tested on: SR leukemia
[44] = tested on: SNB-75 CNS
[45] = tested on: HCT-116 colon
[46] = tested on: U251 CNS
[47] = tested on: SK-OV-3 ovarian
[48] = tested on: KM12 colon
[49] = tested on: COLO 205 colon
[50] = tested on: SW-620 colon
[51] = tested on: MOLT-4 leukemia
[52] = tested on: CAKI-1 renal
[53] = tested on: OVCAR-4 ovarian
[54] = tested on: M19-MEL melanoma
[55] = tested on: RXF 393 renal
[56] = tested on: 786-0 renal
[57] = tested on: LOX IMVI melanoma

CO/C(=N\N=Cc1ccccc1)c1ccncc1
TGI [1]: > 100 µM | TGI [2]: > 100 µM | TGI [3]: > 100 µM | TGI [4]: > 100 µM | TGI [5]: > 100 µM | TGI [6]: > 100 µM | TGI [7]: > 100 µM | TGI [8]: > 100 µM | TGI [9]: > 100 µM | TGI [10]: > 100 µM | TGI [11]: > 100 µM | TGI [12]: 97.1 µM | TGI [13]: > 100 µM | TGI [14]: > 100 µM | TGI [15]: > 100 µM | TGI [16]: > 100 µM | TGI [17]: > 100 µM | TGI [18]: > 100 µM | TGI [19]: > 100 µM | TGI [20]: > 100 µM | TGI [21]: > 100 µM | TGI [22]: > 100 µM | TGI [23]: > 100 µM | TGI [24]: > 100 µM | TGI [25]: > 100 µM | TGI [26]: > 100 µM | TGI [27]: > 100 µM | TGI [28]: > 100 µM | TGI [29]: > 100 µM | TGI [30]: > 100 µM | TGI [31]: > 100 µM | TGI [32]: > 100 µM | TGI [33]: > 100 µM | TGI [34]: > 100 µM | TGI [35]: > 100 µM | TGI [36]: > 100 µM | TGI [37]: > 100 µM | TGI [38]: > 100 µM | TGI [39]: > 100 µM | TGI [40]: > 100 µM | TGI [41]: > 100 µM | TGI [42]: > 100 µM | TGI [43]: > 100 µM | TGI [44]: > 100 µM | TGI [45]: > 100 µM | TGI [46]: > 100 µM | TGI [47]: > 100 µM | TGI [48]: > 100 µM | TGI [49]: > 100 µM | TGI [50]: > 100 µM | TGI [51]: > 100 µM | TGI [52]: > 100 µM | TGI [53]: > 100 µM | TGI [54]: > 100 µM

C[C@@]1(C(=O)c2ccccc2)N(c2ccccc2)[C@@]1(C)C(=O)c1ccccc1
outcome [55]: inactive | outcome [1]: inactive | outcome [2]: inactive | outcome [4]: inactive | outcome [5]: inactive | outcome [6]: inactive | outcome [7]: inactive | outcome [9]: inactive | outcome [10]: inactive | outcome [11]: inactive | outcome [12]: inactive | outcome [13]: inactive | outcome [14]: inactive | outcome [15]: inactive | outcome [16]: inactive | outcome [17]: inactive | outcome [18]: inactive | outcome [19]: inactive | outcome [56]: inactive | outcome [20]: inactive | outcome [21]: inactive | outcome [22]: inactive | outcome [23]: inactive | outcome [24]: inactive | outcome [25]: inactive | outcome [26]: inactive | outcome [27]: inactive | outcome [28]: inactive | outcome [29]: inactive | outcome [30]: inactive | outcome [31]: inactive | outcome [32]: inactive | outcome [33]: inactive | outcome [34]: inactive | outcome [36]: inactive | outcome [37]: inactive | outcome [38]: inactive | outcome [39]: inactive | outcome [40]: inactive | outcome [41]: inactive | outcome [43]: inactive | outcome [57]: inactive | outcome [44]: inactive | outcome [46]: inactive | outcome [47]: inactive | outcome [48]: inactive | outcome [49]: inactive | outcome [50]: inactive | outcome [51]: inactive | outcome [52]: inactive

Cc1nc(N)nn1C1OCC(O)C(O)C1O (stereo not given)
TGI [55]: > 100 µM | TGI [1]: > 100 µM | TGI [2]: > 100 µM | TGI [3]: > 100 µM | TGI [4]: > 100 µM | TGI [6]: > 100 µM | TGI [7]: > 100 µM | TGI [8]: > 100 µM | TGI [9]: > 100 µM | TGI [10]: > 100 µM | TGI [11]: > 100 µM | TGI [13]: > 100 µM | TGI [14]: > 100 µM | TGI [15]: > 100 µM | TGI [16]: > 100 µM | TGI [17]: > 100 µM | TGI [18]: > 100 µM | TGI [19]: > 100 µM | TGI [56]: > 100 µM | TGI [20]: > 100 µM | TGI [21]: > 100 µM | TGI [22]: > 100 µM | TGI [23]: > 100 µM | TGI [24]: > 100 µM | TGI [25]: > 100 µM | TGI [26]: > 100 µM | TGI [27]: > 100 µM | TGI [28]: > 100 µM | TGI [29]: > 100 µM | TGI [30]: > 100 µM | TGI [31]: > 100 µM | TGI [32]: > 100 µM | TGI [33]: > 100 µM | TGI [35]: > 100 µM | TGI [36]: > 100 µM | TGI [37]: > 100 µM | TGI [38]: > 100 µM | TGI [39]: > 100 µM | TGI [40]: > 100 µM | TGI [41]: > 100 µM | TGI [42]: > 100 µM | TGI [44]: > 100 µM | TGI [45]: > 100 µM | TGI [46]: > 100 µM | TGI [47]: > 100 µM | TGI [48]: > 100 µM | TGI [49]: > 100 µM | TGI [50]: > 100 µM | TGI [51]: > 100 µM | TGI [52]: > 100 µM | TGI [53]: > 100 µM

Reference: PubChem BioAssay (NCI)
